Reference: publication PMC3234597, “Two Panels of Steroid Receptor Luciferase Reporter Cell Lines for Compound Profiling” (Combinatorial Chemistry & High Throughput Screening, 2011)

Key:
Type in all cases: cell-based
PR-LBD fused to Gal4-DBD = molecular target: T1, PR-LBD fused to Gal4-DBD (Homo sapiens, UniProt P06401); test: U2OS-PR-LBD/9xGal4UAS luciferase reporter cell line
T1 construct: PR-LBD region was PCR amplified using the following primer combination; host or cells: U2OS
T1 sequence (P06401 679-913 limits assumed): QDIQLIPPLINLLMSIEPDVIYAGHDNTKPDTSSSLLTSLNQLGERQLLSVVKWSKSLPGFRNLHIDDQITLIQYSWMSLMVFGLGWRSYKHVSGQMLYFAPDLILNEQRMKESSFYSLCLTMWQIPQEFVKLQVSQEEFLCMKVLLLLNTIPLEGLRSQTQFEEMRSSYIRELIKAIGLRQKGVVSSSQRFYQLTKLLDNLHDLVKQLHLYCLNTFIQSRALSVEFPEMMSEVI

human AR (full-length) [1] = molecular target: T2, human AR (full-length) (Homo sapiens, UniProt P10275); test: U2OS-AR/MMTV luciferase reporter cell line (full-length receptor)
T2 construct: expression vectors encoding full-length steroid receptors: pcDNA3-hAR and pcDNA3-hGR; host or cells: U2OS
T2 sequence (P10275 1-920): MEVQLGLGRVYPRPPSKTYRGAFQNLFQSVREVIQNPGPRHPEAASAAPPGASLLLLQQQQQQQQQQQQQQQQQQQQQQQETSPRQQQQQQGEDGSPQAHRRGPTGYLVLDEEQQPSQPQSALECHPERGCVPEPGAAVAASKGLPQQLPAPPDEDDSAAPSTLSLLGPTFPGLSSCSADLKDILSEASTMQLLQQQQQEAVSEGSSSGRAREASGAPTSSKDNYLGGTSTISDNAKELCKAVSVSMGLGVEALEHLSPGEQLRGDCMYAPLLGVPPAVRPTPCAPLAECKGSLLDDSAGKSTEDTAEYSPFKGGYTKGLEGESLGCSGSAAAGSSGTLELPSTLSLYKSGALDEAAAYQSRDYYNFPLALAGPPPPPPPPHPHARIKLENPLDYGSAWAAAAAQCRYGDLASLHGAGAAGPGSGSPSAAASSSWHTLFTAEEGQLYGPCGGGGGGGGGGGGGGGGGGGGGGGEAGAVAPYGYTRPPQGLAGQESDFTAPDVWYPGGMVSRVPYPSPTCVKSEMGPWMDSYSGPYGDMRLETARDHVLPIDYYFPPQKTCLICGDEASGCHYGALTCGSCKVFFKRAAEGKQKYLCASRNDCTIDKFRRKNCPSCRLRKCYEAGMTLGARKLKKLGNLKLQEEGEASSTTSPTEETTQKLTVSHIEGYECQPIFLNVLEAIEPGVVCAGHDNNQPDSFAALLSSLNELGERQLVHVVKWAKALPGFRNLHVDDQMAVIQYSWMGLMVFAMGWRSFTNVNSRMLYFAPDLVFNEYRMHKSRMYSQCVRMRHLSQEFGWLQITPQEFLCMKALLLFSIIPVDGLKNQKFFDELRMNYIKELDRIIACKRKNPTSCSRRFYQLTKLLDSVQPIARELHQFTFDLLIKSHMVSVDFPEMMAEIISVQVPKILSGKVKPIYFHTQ

human ERβ (full-length) = molecular target: T3, human ERβ (full-length) (Homo sapiens, UniProt Q92731); test: U2OS-ERβ/3xERE luciferase reporter cell line (full-length receptor); settings: read-out: Log EC50 (converted)
T3 construct: expression vectors encoding full-length steroid receptors: pcDNA3-hERα and pcDNA3-ERβ; expressed in transfected cells; host or cells: U2OS

MR-LBD fused to Gal4-DBD = molecular target: T4, MR-LBD fused to Gal4-DBD (Homo sapiens, UniProt P08235); test: U2OS-MR-LBD/9xGal4UAS luciferase reporter cell line; settings: read-out: Log EC50 (converted)
T4 construct: MR-LBD was cloned by RT-PCR from total RNA isolated from HEK293 cells; expressed in transfected cells; host or cells: U2OS
T4 sequence (P08235 726-964 limits assumed): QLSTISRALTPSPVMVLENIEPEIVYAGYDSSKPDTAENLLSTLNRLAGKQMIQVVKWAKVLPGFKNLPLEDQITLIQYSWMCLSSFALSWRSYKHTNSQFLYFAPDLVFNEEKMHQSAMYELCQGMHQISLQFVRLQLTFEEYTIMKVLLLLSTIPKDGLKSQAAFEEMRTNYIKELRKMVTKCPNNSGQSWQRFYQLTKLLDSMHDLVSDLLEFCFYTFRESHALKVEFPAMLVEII

[2] = molecular target: T5, ERβ-LBD fused to Gal4-DBD (Homo sapiens, UniProt Q92731); test: U2OS-ERβ-LBD/9xGal4UAS luciferase reporter cell line; settings: read-out: Log EC50 (converted)
T5 construct: region comprising ERβ-LBD and a piece of the hinge region; expressed in transfected cells; host or cells: U2OS

human AR (full-length) [3] = molecular target: T2, human AR (full-length); test: U2OS-AR/3xGRE luciferase reporter cell line (full-length receptor)
human MR (full-length) = molecular target: T6, human MR (full-length) (Homo sapiens, UniProt P08235); test: U2OS-MR/MMTV luciferase reporter cell line (full-length receptor); settings: read-out: Log EC50 (converted)
T6 construct: expression vectors encoding full-length steroid receptors: pcDNA3-hAR, pcDNA3-hGR and pcDNA3-hMR; expressed in transfected cells; host or cells: U2OS
T6 sequence (P08235 1-984): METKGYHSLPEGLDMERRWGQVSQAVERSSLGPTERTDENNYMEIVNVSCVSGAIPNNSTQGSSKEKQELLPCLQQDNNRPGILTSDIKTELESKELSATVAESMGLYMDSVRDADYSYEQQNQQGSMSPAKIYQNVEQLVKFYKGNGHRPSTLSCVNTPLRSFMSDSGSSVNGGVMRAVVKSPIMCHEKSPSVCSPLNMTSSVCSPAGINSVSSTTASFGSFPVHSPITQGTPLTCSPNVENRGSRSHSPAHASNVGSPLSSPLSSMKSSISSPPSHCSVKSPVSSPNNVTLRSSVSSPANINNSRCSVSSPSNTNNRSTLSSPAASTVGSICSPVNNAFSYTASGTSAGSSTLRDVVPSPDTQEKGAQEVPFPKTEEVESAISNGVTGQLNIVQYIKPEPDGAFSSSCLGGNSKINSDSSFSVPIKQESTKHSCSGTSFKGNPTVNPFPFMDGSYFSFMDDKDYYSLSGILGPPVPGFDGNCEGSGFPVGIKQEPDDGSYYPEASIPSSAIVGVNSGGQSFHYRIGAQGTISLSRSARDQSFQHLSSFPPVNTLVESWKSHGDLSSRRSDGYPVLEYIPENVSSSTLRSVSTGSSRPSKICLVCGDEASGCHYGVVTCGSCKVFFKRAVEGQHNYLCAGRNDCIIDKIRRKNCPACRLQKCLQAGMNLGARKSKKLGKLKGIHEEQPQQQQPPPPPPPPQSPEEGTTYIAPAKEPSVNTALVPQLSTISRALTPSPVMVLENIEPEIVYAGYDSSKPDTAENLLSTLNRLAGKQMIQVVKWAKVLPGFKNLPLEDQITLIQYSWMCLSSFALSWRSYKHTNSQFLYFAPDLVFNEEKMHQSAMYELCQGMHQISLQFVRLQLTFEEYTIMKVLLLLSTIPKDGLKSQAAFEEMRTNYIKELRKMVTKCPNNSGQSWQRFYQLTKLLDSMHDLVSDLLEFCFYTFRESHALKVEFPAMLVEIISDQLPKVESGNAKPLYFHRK

[4] = molecular target: T7, AR-LBD fused to Gal4-DBD (co-expressed with full-length AR) (Homo sapiens, UniProt P10275); test: U2OS-AR-LBD/9xGal4UAS luciferase reporter cell line
T7 construct: the following primers were used for the amplification of the LBD region; expressed in transfected cells; host or cells: U2OS
T7 sequence (P10275 669-900 limits assumed): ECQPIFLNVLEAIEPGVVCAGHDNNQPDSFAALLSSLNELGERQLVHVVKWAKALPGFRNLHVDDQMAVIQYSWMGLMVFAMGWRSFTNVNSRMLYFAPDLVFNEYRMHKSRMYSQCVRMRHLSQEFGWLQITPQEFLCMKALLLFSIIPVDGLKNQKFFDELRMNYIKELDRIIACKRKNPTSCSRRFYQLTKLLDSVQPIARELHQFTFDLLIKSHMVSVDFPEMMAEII

T5 sequence (Q92731 264-498 limits assumed): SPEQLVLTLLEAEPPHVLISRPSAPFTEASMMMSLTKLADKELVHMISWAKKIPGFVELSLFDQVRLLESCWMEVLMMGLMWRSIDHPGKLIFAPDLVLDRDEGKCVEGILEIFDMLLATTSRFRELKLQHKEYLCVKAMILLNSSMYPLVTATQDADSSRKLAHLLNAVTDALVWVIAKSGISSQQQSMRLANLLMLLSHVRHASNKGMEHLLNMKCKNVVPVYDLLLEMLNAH
T3 sequence (Q92731 whole entry): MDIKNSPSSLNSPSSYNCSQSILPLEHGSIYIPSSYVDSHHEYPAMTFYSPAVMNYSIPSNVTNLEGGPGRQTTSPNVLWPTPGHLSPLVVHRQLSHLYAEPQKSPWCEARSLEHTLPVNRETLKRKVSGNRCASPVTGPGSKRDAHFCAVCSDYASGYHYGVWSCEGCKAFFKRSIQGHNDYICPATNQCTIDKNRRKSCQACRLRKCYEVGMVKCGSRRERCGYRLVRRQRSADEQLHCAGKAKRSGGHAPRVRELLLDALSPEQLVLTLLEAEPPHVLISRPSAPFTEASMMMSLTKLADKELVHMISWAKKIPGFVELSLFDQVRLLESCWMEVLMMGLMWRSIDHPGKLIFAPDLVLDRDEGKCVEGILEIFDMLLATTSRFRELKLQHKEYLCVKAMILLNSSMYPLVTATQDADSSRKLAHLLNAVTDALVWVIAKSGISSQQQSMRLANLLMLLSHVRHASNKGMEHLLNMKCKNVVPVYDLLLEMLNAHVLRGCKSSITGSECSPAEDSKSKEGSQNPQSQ

- IC50 (PR-LBD fused to Gal4-DBD; antagonist mode, PR-LBD/9xGal4UAS, log10 of molar IC50, mean ± SEM, read-out: Log IC50 (converted)): > 10 µM
- EC50 (PR-LBD fused to Gal4-DBD; read-out: Log EC50 (converted)): 6.17 µM
- EC50 (human AR (full-length) [1]): > 10 µM
- IC50 (human AR (full-length) [1]): > 10 µM
- EC50 (human ERβ (full-length)): > 10 µM
- EC50 (MR-LBD fused to Gal4-DBD): 0.0112 µM
- EC50 [2]: > 10 µM
- EC50 (human AR (full-length) [3]): > 10 µM
- EC50 (human MR (full-length)): 0.00631 µM
- EC50 [4]: > 10 µM
- IC50 [4]: > 10 µM
SMILES: C[C@]12CCC(=O)C=C1CC[C@@H]1[C@@H]2[C@@H](O)C[C@@]2(C)[C@H]1CC[C@]2(O)C(=O)CO [Cortisol, cortisol]
